Like-named read-outs stand apart in the source and are kept apart here.
Key:
[1] = tested on: human primary tumor cells; assay: Inhibition of primary tumor cell cultures vs amplification of the gene encoding the NK1 receptor (Example 6; tumor type per table line); format: cell-based; conditions: for Percentage of inhibition of cell cultures: 100 micromolar
Description: (§1) Cell cultures. […] Briefly, small pieces of the tumors were digested into a hyaluronidase solution (Sigma-Aldrich, USA) at a concentration of 1 mg/ml during 15 minutes at 37°C, and then they were treated with 6 mg/ml of collagenase type IV (Invitrogen) during 2 hours at 37°C. Consecutively, cells were washed, and resuspended in the DMEM culture medium with high concentration of glucose (Dulbecco's Modified Eagle's Medium, Invitrogen) supplemented with 1% of antibiotics-antimycotics (Invitrogen) and with 1% of sodium pyruvate (Invitrogen), and the cells were seeded in culture slides at a concentration of 10.000 cells per square centimeter. When cells reached confluence, the adherent cells were separated using sterile trypsin at 0,5% (Invitrogen) and they were used among passages 3 and 9. For the assays shown next, tumor cells were seeded on slides at a concentration of 25.000 cells per well. A total of 6 wells containing the tumor cells were used as survival control. […] All the cultures were kept during 48 hours and later on recollected for their analysis.
The presence or absence of the amplification of the gene encoding for the NK1 receptor was determined, and then the cells were cultured in the presence of several antagonists of the NK1 receptor.
For each case, the presence or absence of amplification of the gene encoding for the NK1 receptor was determined.
In order to determine the presence of the amplification (increase in the number of copies) of the gene encoding the NK1 receptor (TAC1R), it was used the comparative genomic hybridization technique (CGH Array). Firstly genomic DNA was extracted from each case. Later, it was performed the marking and hybridization of the DNA of each sample together with DNA of a commercial reference without genomic alterations (from masculine or feminine sex, depending on the gender of the patient from whom the samples were obtained). The Array is Sureprint G3 Human CGH Microarray from the company Agilent was used, with an average separation between probes of 5.3Kb and 4.6Kb for the genes RefSeq. The reading of the microarray was done with the DNA Microarray Scanner G2565CA from Agilent, at a resolution of 3 µm. The analysis of the results was performed with the software Cytogenomics v 2.0.6.0 from Agilent with ADM-2: 6.0; Centralization: ON (Threshold: 6.0, Bin size: 10); Fuzzy zero: ON; Aberration filters: ON (minProbes=5 and minAvgAbsLopRatio= 0,5); Feature Level Filters : ON. The genomic coordinates are coincident with the NCBI36genome (hg18). Cases were distributed in two groups: Group I for those cases without the amplification of the gene encoding the NK1 receptor (locus 2p13.1-p12), and Group II for those cases with amplification of the gene encoding the NK1receptor (locus 2p13.1-p12).
The antibody against NK1 receptor (Table 36) was used at 1/50 concentration. The percentages of inhibition are expressed in percentages of variation in relation to control ± standard deviation.

[2] = tested on: human primary tumor cells; assay: Inhibition of primary tumor cell cultures vs absence or presence of ERK  protein (Example 3; tumor type per table line); format: cell-based; conditions: for Percentage of inhibition of cell cultures: 100 micromolar
Description: as §1
Consecutively, the cells were placed in cultures in the presence of several antagonists of the NK1 receptor.
In each case it was determined the presence or absence of the downstream effector in the MAP Kinases ERK pathway.
To determine the presence of the ERK protein, it was performed a Western Blot technique, using as primary antibody: Phospho-p44/42 MAPK (Erk1/2) (Thr202/Tyr204) (D13.14.4E) XP® Rabbit mAb (4370, Cell Signalling). To determine the presence of the MEK protein, it was performed the Western Blot technique, using as primary antibody Phospho-MEK1/2 (Ser217/221) (9121, Cell Signalling).
The antibody against NK1 receptor (Table 21) was used at 1/50 concentration. The percentages of inhibition are expressed in percentages of variation in relation to control ± standard deviation.

[3] = tested on: Colon carcinoma (Adenocarcinoma); assay: Inhibition of primary tumor cell cultures vs Kras mutation (Example 2); format: cell-based, human; conditions: Colon carcinoma (Adenocarcinoma), 100 micromolar
Description: (§2) Cell cultures. To obtain tumor cells from human primary tumors we used the method described in De Bari et al. (De Bari et al. 2001). Briefly, small pieces of the tumors were digested into a hyaluronidase solution (Sigma-Aldrich, USA) at a concentration of 1 mg/ml during 15 minutes at 37°C, and then they were treated with 6 mg/ml of collagenase type IV (Invitrogen) during 2 hours at 37°C. Consecutively, cells were washed, and resuspended in the DMEM culture medium with high concentration of glucose (Dulbecco's Modified Eagle's Medium, Invitrogen) supplemented with 1% of antibiotics-antimycotics (Invitrogen) and with 1% of sodium pyruvate (Invitrogen), and the cells were seeded in culture slides at a concentration of 10.000 cells per square centimeter. When cells reached confluence, the adherent cells were separated using sterile trypsin at 0,5% (Invitrogen) and they were used among passages 3 and 9. For the assays shown next, tumor cells were seeded on slides at a concentration of 25.000 cells per well. A total of 6 wells containing the tumor cells were used as survival control. […] All the cultures were kept during 48 hours and later on recollected for their analysis.
In each case the presence or not of mutations in K-ras gene was determined.
To determine the existence of mutations in the K-ras gene DNA from cancer tumor cells was extracted from samples obtained from the different cancer tumor cells, using DNA extraction kits from Takara (Madison, WI, US) or Ambion (Huntingdon, Cambridgeshire, United Kingdom), following the manufacturer's instructions, and as it has been previously published (Di Fiore F, et al. 2007). Consecutively it was analyzed by sequencing the exon 2 of the KRAS gene, , by means of PCR amplification from previously extracted cancer tumor DNA, using the following sense primer (SEQ ID NO. 15): 5'-[sequence]-3' and anti-sense primer (SEQ ID NO. 16): 5'-[sequence]-3'. After the purification using the Qiagen extraction kit, the PCR products were sequenced using the Big Dye Terminator Kit V3.1 (Applied Biosystems, Foster City, CA, U.S.) and an ABI Prism 377 or 3100 DNA sequencer (Applied Biosystems). The presence of a heterozygous mutation in the KRAS gene in cancer tumor cells of the cultures was defined as the appearance of a mutant peak of a height of at least a third of the wild type. All the sequence analysis were executed at least twice in two independent PCR.
The antibody against NK1 receptor (Table 16) was used at 1/50 concentration. The percentages of inhibition are expressed in percentage of variation in relation to control ± standard deviation.

[4] = tested on: Thyroid carcinoma (papillary type); assay: Inhibition of primary tumor cell cultures (48 hours) vs NK1 receptor immunostaining (Example 1); format: cell-based; conditions: Homo sapiens, 1 micromolar, read-out: Percentage of inhibition of cell cultures
Description: as §2
(§3) Immunohistochemistry techniques. The presence of NK1 receptors was also analyzed using immunohistochemistry techniques. Briefly, a sample of each of the cultures of the cell lines used in the present invention, was centrifuged (5 minutes at 1.500 rpm) and the pellet obtained was dehydrated using increasing concentrations of ethanol and, finally, xylol. Then, said dehydrated samples were embedded in paraffin, creating a block of cells. Such paraffin blocks were cut with a microtome at 5 microns thickness, and were placed on microscope slides adequate to perform immunohistochemistry techniques. Consecutively, they were de-paraffinized by immersing them in xylol, to be finally hydrated using a solution containing decreasing concentrations of ethanol, and finally submerged them into water. […] After this, the samples were left to cool down at room temperature for 10 minutes. The endogenous peroxidase activity was blocked with 3% peroxide of hydrogen for 30 minutes at room temperature. After washing the samples with 0.05 M of Tris buffer, they were incubated with 10% non-immune pork serum at for 30 minutes at room temperature. To analyze the expression of NK1 receptors, the cellular samples were incubated in the presence of anti-NK1 antibodies (S8305, Sigma-Aldrich) diluted 1:1000, overnight at 4°C. Afterwards, the samples were washed in Tris buffer 0.05 M at room temperature. The next step was the addition of Envision System-HRP (Dako) reagents for 30 minutes at room temperature. Then, the samples were washed again in Tris buffer 0.05 M and the immunoreactivity was visualized through light microscopy with a chromogenic solution containing 3,3'-Diaminobenzidine (DAB+; Dako, USA). To differentiate the cell nuclei, they were slightly stained with hematoxylin. As negative control, it was used samples not incubated with the primary antibody anti-NK1, which was replaced by non-immune serum. All the samples were evaluated.
(§4) To value the immunostaining in each of the cases six cuts were performed to be analyzed by the immunohistochemistry technique. In each of the six cuts, it was counted cells in 20 fields (magnification 400x) using an Olympus microscope (model CX31). In each field it was counted the total number of cells and the number of cells presenting immunostaining, calculating afterwards the percentage of cells which presented immunostaining.

Myeloma = assay: as above; format: cell-based; conditions: Homo sapiens, 1 micromolar, read-out: Percentage of inhibition of cell cultures
Description: as §2, §3, §4

Breast carcinoma = assay: as above; format: cell-based; conditions: Homo sapiens, 1 micromolar, read-out: Percentage of inhibition of cell cultures
Description: as §2, §3, §4

Neuroblastoma = assay: as above; format: cell-based; conditions: Homo sapiens, 1 micromolar, read-out: Percentage of inhibition of cell cultures
Description: as §2, §3, §4

[5] = NK1 receptor immunostaining Group 1 (less than 20% of the cells)
[6] = NK1 receptor immunostaining Group 2 (20-80% of the cells)
[7] = NK1 receptor immunostaining Group 3 (more than 80% of the cells)
[8] = NK1 receptor immunostaining Intensity grade 1
[9] = NK1 receptor immunostaining Intensity grade 2
[10] = NK1 receptor immunostaining Intensity grade 3

Compound: Cc1cc(F)ccc1[C@H]1CNCCN1C(=O)N(C)[C@H](C)c1cc(C(F)(F)F)cc(C(F)(F)F)c1 [Vestipitant]
- Percentage of inhibition of cell cultures ([1]; Prostate carcinoma, Cases without amplification of the gene that encodes for the NK1 receptor): 25±6 percentage
- Percentage of inhibition of cell cultures ([1]; Renal cell carcinoma (clear cell renal cell carcinoma), Cases with amplification of the gene that encodes for the NK1 receptor): 94±5 percentage
- Percentage of inhibition of cell cultures ([1]; Renal cell carcinoma (clear cell renal cell carcinoma), Cases without amplification of the gene that encodes for the NK1 receptor): 27±4 percentage
- Percentage of inhibition of cell cultures ([1]; Thyroid carcinoma (follicular carcinoma), Cases with amplification of the gene that encodes for the NK1 receptor): 94±6 percentage
- Percentage of inhibition of cell cultures ([1]; Thyroid carcinoma (follicular carcinoma), Cases without amplification of the gene that encodes for the NK1 receptor): 25±5 percentage
- Percentage of inhibition of cell cultures ([1]; Thyroid carcinoma (papillary carcinoma), Cases with amplification of the gene that encodes for the NK1 receptor): 97±4 percentage
- Percentage of inhibition of cell cultures ([1]; Thyroid carcinoma (papillary carcinoma), Cases without amplification of the gene that encodes for the NK1 receptor): 26±3 percentage
- Percentage of inhibition of cell cultures ([1]; Undifferentiated Pleomorphic Sarcoma (malignant fibrous histiocytoma grade 3), Cases with amplification of the gene that encodes for the NK1 receptor): 95±7 percentage
- Percentage of inhibition of cell cultures ([1]; Undifferentiated Pleomorphic Sarcoma (malignant fibrous histiocytoma grade 3), Cases without amplification of the gene that encodes for the NK1 receptor): 27±4 percentage
- Percentage of inhibition of cell cultures ([1]; Urinary bladder carcinoma (transitional cell carcinoma), Cases with amplification of the gene that encodes for the NK1 receptor): 95±5 percentage
- Percentage of inhibition of cell cultures ([1]; Urinary bladder carcinoma (transitional cell carcinoma), Cases without amplification of the gene that encodes for the NK1 receptor): 24±5 percentage
- inhibition of cell proliferation ([1]; cancer cell cultures which show amplification in the genomic region encoding the NK1 receptor, compared, non-peptidic antagonists 100 micromolar, antibody 1/50): higher inhibition
- Percentage of inhibition of cell cultures ([2]; Breast carcinoma (ductal adenocarcinoma), cases with presence of ERK): 94±3 percentage
- Percentage of inhibition of cell cultures ([2]; Breast carcinoma (ductal adenocarcinoma), cases without presence of ERK): 26±4 percentage
- Percentage of inhibition of cell cultures ([2]; Burkitt Lymphoma, cases with presence of ERK): 93±5 percentage
- Percentage of inhibition of cell cultures ([2]; Burkitt Lymphoma, cases without presence of ERK): 26±4 percentage
- Percentage of inhibition of cell cultures ([2]; Carcinoma of the uterine cervix (Squamous cell carcinoma), cases with presence of ERK): 94±4 percentage
- Percentage of inhibition of cell cultures ([2]; Carcinoma of the uterine cervix (Squamous cell carcinoma), cases without presence of ERK): 29±3 percentage
- Percentage of inhibition of cell cultures ([2]; Colon carcinoma (Adenocarcinoma), cases with presence of ERK): 94±3 percentage
- Percentage of inhibition of cell cultures ([2]; Colon carcinoma (Adenocarcinoma), cases without presence of ERK): 23 percentage
- Percentage of inhibition of cell cultures ([2]; Endometrium carcinoma, cases with presence of ERK): 93±3 percentage
- Percentage of inhibition of cell cultures ([2]; Endometrium carcinoma, cases without presence of ERK): 28±5 percentage
- Percentage of inhibition of cell cultures ([2]; Gastric carcinoma (Adenocarcinoma), cases with presence of ERK): 95±3 percentage
- Percentage of inhibition of cell cultures ([2]; Gastric carcinoma (Adenocarcinoma), cases without presence of ERK): 24±4 percentage
- Percentage of inhibition of cell cultures ([2]; Glioma (astrocytoma), cases with presence of ERK): 95±3 percentage
- Percentage of inhibition of cell cultures ([2]; Glioma (astrocytoma), cases without presence of ERK): 27±4 percentage
- Percentage of inhibition of cell cultures ([2]; Lung carcinoma (non small cell lung carcinoma), cases with presence of ERK): 95±5 percentage
- Percentage of inhibition of cell cultures ([2]; Lung carcinoma (non small cell lung carcinoma), cases without presence of ERK): 26±2 percentage
- Percentage of inhibition of cell cultures ([2]; Lung carcinoma (small cell lung carcinoma), cases with presence of ERK): 96±6 percentage
- Percentage of inhibition of cell cultures ([2]; Lung carcinoma (small cell lung carcinoma), cases without presence of ERK): 27±4 percentage
- Percentage of inhibition of cell cultures ([2]; Melanoma (Nodular Melanoma), cases with presence of ERK): 94±5 percentage
- Percentage of inhibition of cell cultures ([2]; Melanoma (Nodular Melanoma), cases without presence of ERK): 25±3 percentage
- Percentage of inhibition of cell cultures ([2]; Non Hodgkin Lymphoma B (diffuse B cell lymphoma), cases with presence of ERK): 96±3 percentage
- Percentage of inhibition of cell cultures ([2]; Non Hodgkin Lymphoma B (diffuse B cell lymphoma), cases without presence of ERK): 24±4 percentage
- Percentage of inhibition of cell cultures ([2]; Non Hodgkin Lymphoma T (diffuse T cell lymphoma), cases with presence of ERK): 92±4 percentage
- Percentage of inhibition of cell cultures ([2]; Non Hodgkin Lymphoma T (diffuse T cell lymphoma), cases without presence of ERK): 25±2 percentage
- Percentage of inhibition of cell cultures ([2]; Ovarian carcinoma (Adenocarcinoma), cases with presence of ERK): 95±5 percentage
- Percentage of inhibition of cell cultures ([2]; Ovarian carcinoma (Adenocarcinoma), cases without presence of ERK): 24±2 percentage
- Percentage of inhibition of cell cultures ([2]; Pancreatic carcinoma (Adenocarcinoma), cases with presence of ERK): 93±4 percentage
- Percentage of inhibition of cell cultures ([2]; Pancreatic carcinoma (Adenocarcinoma), cases without presence of ERK): 24±34 percentage
- Percentage of inhibition of cell cultures ([2]; Prostate carcinoma, cases with presence of ERK): 94±4 percentage
- Percentage of inhibition of cell cultures ([2]; Prostate carcinoma, cases without presence of ERK): 22±3 percentage
- Percentage of inhibition of cell cultures ([2]; Renal cell carcinoma (clear cell renal cell carcinoma), cases with presence of ERK): 92±2 percentage
- Percentage of inhibition of cell cultures ([2]; Renal cell carcinoma (clear cell renal cell carcinoma), cases without presence of ERK): 25±2 percentage
- Percentage of inhibition of cell cultures ([2]; Thyroid carcinoma (follicular carcinoma), cases with presence of ERK): 94±4 percentage
- Percentage of inhibition of cell cultures ([2]; Thyroid carcinoma (follicular carcinoma), cases without presence of ERK): 25±3 percentage
- Percentage of inhibition of cell cultures ([2]; Thyroid carcinoma (papillary carcinoma), cases with presence of ERK): 96±3 percentage
- Percentage of inhibition of cell cultures ([2]; Thyroid carcinoma (papillary carcinoma), cases without presence of ERK): 26±4 percentage
- Percentage of inhibition of cell cultures ([2]; Undifferentiated Pleomorphic Sarcoma (malignant fibrous histiocytoma grade 3), cases with presence of ERK): 93±4 percentage
- Percentage of inhibition of cell cultures ([2]; Undifferentiated Pleomorphic Sarcoma (malignant fibrous histiocytoma grade 3), cases without presence of ERK): 26±2 percentage
- Percentage of inhibition of cell cultures ([2]; Urinary bladder carcinoma (transitional cell carcinoma), cases with presence of ERK): 97±5 percentage
- Percentage of inhibition of cell cultures ([2]; Urinary bladder carcinoma (transitional cell carcinoma), cases without presence of ERK): 24±5 percentage
- inhibition of cell proliferation ([2]; cancer cell cultures that show more presence of ERK, compared, non-peptidic antagonists 100 micromolar, antibody 1/50): higher inhibition
- Percentage of inhibition of cell cultures ([3]; Cases with Kras mutated): 33±5 percentage
- Percentage of inhibition of cell cultures ([3]; Cases with Kras non-mutated (wild type)): 96±5 percentage
- inhibition at 1 µM [4, 5]: 15 ± 3%
- inhibition at 1 µM [4, 6]: 47 ± 5%
- inhibition at 1 µM [4, 7]: 96 ± 4%
- inhibition at 1 µM [4, 8]: 16 ± 2%
- inhibition at 1 µM [4, 9]: 47 ± 5%
- inhibition at 1 µM [4, 10]: 96 ± 5%
- inhibition at 1 µM (Myeloma; [5]): 15 ± 2%
- inhibition at 1 µM (Myeloma; [6]): 45 ± 4%
- inhibition at 1 µM (Myeloma; [7]): 93 ± 6%
- inhibition at 1 µM (Myeloma; [8]): 17 ± 2%
- inhibition at 1 µM (Myeloma; [9]): 47 ± 4%
- inhibition at 1 µM (Myeloma; [10]): 93 ± 5%
- inhibition at 1 µM (Breast carcinoma; [5]): 12 ± 3%
- inhibition at 1 µM (Breast carcinoma; [6]): 46 ± 3%
- inhibition at 1 µM (Breast carcinoma; [7]): 93 ± 4%
- inhibition at 1 µM (Breast carcinoma; [8]): 19 ± 4%
- inhibition at 1 µM (Breast carcinoma; [9]): 45 ± 3%
- inhibition at 1 µM (Breast carcinoma; [10]): 93 ± 3%
- inhibition at 1 µM (Neuroblastoma; [5]): 17 ± 2%
- inhibition at 1 µM (Neuroblastoma; [6]): 46 ± 3%
- inhibition at 1 µM (Neuroblastoma; [7]): 93 ± 3%
- inhibition at 1 µM (Neuroblastoma; [8]): 16 ± 1%
- inhibition at 1 µM (Neuroblastoma; [9]): 49 ± 5%
- inhibition at 1 µM (Neuroblastoma; [10]): 93 ± 4%

From patent EP2966448B1, “METHOD FOR THE PREDICTION OR PROGNOSIS OF THE RESPONSE OF A HUMAN SUBJECT SUFFERING FROM CANCER TO TREATMENT WITH AN ANTAGONIST OF THE NK1 RECEPTOR” (priority 2013, dated 2014)
